The supplement of paper PMC10307832

Experiments:
Experiment in all cases: relative viability (nuclei count vs DMSO), 5 days (fraction); higher = more cells survive
[1] = compound: COc1cc([C@@H]2c3cc4c(cc3[C@@H](O[C@@H]3O[C@@H]5CO[C@@H](C)O[C@H]5[C@H](O)[C@H]3O)[C@H]3COC(=O)[C@H]23)OCO4)cc(OC)c1O [Etoposide] + C[C@]1(O)C[C@@H](c2nc(-c3ccc4ccc(-c5ccccc5)nc4c3)c3c(N)nccn32)C1 [Linsitinib] (partner 1 µM)
Procedure, shortened: (§1)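 Relative viability was taken as the ratio of nuclei in treated wells to nuclei in vehicle wells. Lung cancer cell lines in 1536-well plates received compounds by pin tool one day after seeding, either one drug alone or a fixed anchor-drug dose plus five library-drug doses (not always all listed) in √10 steps. Nuclei were counted on 4× images after 5 days of treatment, and values are medians of duplicate plates.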

[2] = compound: CC1=C(N=C(N=C1N)[C@H](CC(=O)N)NC[C@@H](C(=O)N)N)C(=O)N[C@@H]([C@H](C2=CN=CN2)OC3C(C(C(C(O3)CO)O)O)OC4C(C(C(C(O4)CO)O)OC(=O)N)O)C(=O)N[C@H](C)[C@H]([C@H](C)C(=O)N[C@@H]([C@@H](C)O)C(=O)NCCC5=NC(=CS5)C6=NC(=CS6)C(=O)NCCC[S+](C)C)O [Bleomycin] + Cc1nc(NC(=O)N2CCC[C@H]2C(N)=O)sc1-c1ccnc(C(C)(C)C(F)(F)F)c1 [Alpelisib] (partner 2 µM); conditions: main component drawn
Procedure, shortened: as §1

[3] = compound: CC1=C(N=C(N=C1N)[C@H](CC(=O)N)NC[C@@H](C(=O)N)N)C(=O)N[C@@H]([C@H](C2=CN=CN2)OC3C(C(C(C(O3)CO)O)O)OC4C(C(C(C(O4)CO)O)OC(=O)N)O)C(=O)N[C@H](C)[C@H]([C@H](C)C(=O)N[C@@H]([C@@H](C)O)C(=O)NCCC5=NC(=CS5)C6=NC(=CS6)C(=O)NCCC[S+](C)C)O [Bleomycin] + O=C(c1cc(Cc2n[nH]c(=O)c3ccccc23)ccc1F)N1CCN(C(=O)C2CC2)CC1 [Olaparib] (partner 8 µM); conditions: main component drawn
Procedure, shortened: as §1

[4] = compound: COc1cc([C@@H]2c3cc4c(cc3[C@@H](O[C@@H]3O[C@@H]5CO[C@@H](C)O[C@H]5[C@H](O)[C@H]3O)[C@H]3COC(=O)[C@H]23)OCO4)cc(OC)c1O [Etoposide] + CC(C)C[C@H](NC(=O)[C@H](Cc1ccccc1)NC(=O)c1cnccn1)B(O)O [Bortezomib] (partner 0.002 µM)
Procedure, shortened: as §1

Row | Cell Line | relative viability ([1]; first compound 0.01 µM) | relative viability ([1]; first compound 0.03162 µM) | relative viability ([1]; first compound 0.1 µM) | relative viability ([1]; first compound 0.3162 µM) | relative viability ([1]; first compound 1 µM) | relative viability ([2]; first compound 0.01 µM) | relative viability ([2]; first compound 0.03162 µM) | relative viability ([2]; first compound 0.1 µM) | relative viability ([2]; first compound 0.3162 µM) | relative viability ([2]; first compound 1 µM) | relative viability ([3]; first compound 0.01 µM) | relative viability ([3]; first compound 0.03162 µM) | relative viability ([3]; first compound 0.1 µM) | relative viability ([3]; first compound 0.3162 µM) | relative viability ([3]; first compound 1 µM) | relative viability ([4]; first compound 0.01 µM) | relative viability ([4]; first compound 0.03162 µM) | relative viability ([4]; first compound 0.1 µM) | relative viability ([4]; first compound 0.3162 µM) | relative viability ([4]; first compound 1 µM)
1 | HCC-44 | 0.61 | 0.745 | 0.729 | 0.535 | 0.267 | 0.45 | 0.27 | 0.224 | 0.212 | 0.162 | 0.84 | 0.739 | 0.657 | 0.415 | 0.401 | 1.01 | 0.905 | 1.02 | 0.781 | 0.418
2 | HCC-827 | 0.983 | 0.919 | 0.931 | 0.659 | 0.33 | 0.925 | 1 | 0.852 | 0.599 | 0.233 | 0.522 | – | 0.446 | 0.209 | 0.161 | 1.09 | 1.06 | 1.07 | 0.803 | 0.458
3 | NCI-H2405 | 0.791 | 0.96 | 0.582 | 0.7 | 0.377 | 0.648 | 0.704 | 0.615 | 0.312 | 0.306 | 0.668 | 0.757 | 0.669 | 0.395 | 0.277 | 0.987 | 1.05 | 0.753 | 0.531 | 0.746
4 | PC-3 [JPC-3] | 0.965 | 0.991 | 0.952 | 0.933 | 0.84 | 0.847 | 0.993 | 0.905 | 0.655 | 0.506 | 0.932 | 1.13 | 0.825 | 0.481 | 0.486 | 0.795 | 0.756 | 0.93 | 0.775 | 0.67
5 | NCI-H1651 | 0.885 | 0.922 | 0.864 | 0.331 | 0.134 | 0.708 | 0.71 | 0.733 | 0.236 | 0.174 | 0.177 | 0.153 | 0.172 | 0.116 | 0.122 | 0.914 | 0.979 | 0.875 | 0.532 | 0.181
6 | HARA | 0.892 | 1.15 | 1.04 | 0.738 | 0.182 | 0.682 | 0.784 | 0.818 | 0.415 | 0.373 | 0.733 | 0.942 | 0.701 | 0.247 | 0.351 | 1.04 | 1.29 | 1.11 | 0.995 | 0.235
7 | NCI-H1650 | – | – | – | – | – | – | – | – | – | – | 0.285 | 0.183 | 0.167 | 0.156 | 0.158 | 0.201 | 0.204 | 0.208 | 0.181 | 0.185
8 | NCI-H1395 | 1 | 1.33 | 0.836 | 0.897 | 0.656 | 0.817 | 0.812 | 0.669 | 0.9 | 0.382 | 0.434 | 0.448 | 0.406 | 0.35 | 0.377 | – | – | – | – | –
9 | NCI-H2087 | – | 1.06 | 0.889 | 0.588 | 0.303 | 0.865 | 0.924 | 0.795 | 0.196 | 0.165 | 0.366 | 0.46 | 0.442 | 0.182 | 0.145 | – | 0.888 | 0.864 | 0.641 | 0.302
10 | LU99A | 0.495 | 0.614 | 0.333 | 0.264 | 0.201 | 0.345 | 0.332 | 0.239 | 0.137 | 0.118 | 0.209 | 0.24 | 0.202 | 0.141 | 0.118 | 1.31 | 1.31 | 0.661 | 0.432 | 0.19
11 | NCI-H1355 | 0.732 | 0.945 | 0.466 | 0.585 | 0.334 | 0.777 | 0.935 | 0.802 | 0.566 | 0.323 | 0.669 | 0.71 | 0.676 | 0.341 | 0.228 | 1.15 | 1.35 | 0.671 | 1.13 | 0.412
12 | HCC-78 | 0.436 | 0.525 | 0.255 | 0.322 | 0.181 | 0.287 | 0.266 | 0.285 | 0.222 | 0.174 | 0.592 | 0.617 | 0.652 | 0.488 | 0.487 | 0.487 | 0.5 | 0.35 | 0.314 | 0.229
13 | NCI-H1563 | 1.17 | 1.05 | 0.957 | 0.673 | 0.612 | 0.831 | 0.707 | 0.678 | 0.613 | 0.572 | – | – | – | – | – | 0.802 | 0.866 | 0.781 | 0.618 | 0.605
14 | HCC-15 | 0.892 | 0.903 | 0.755 | 0.396 | 0.16 | 0.79 | 0.852 | 0.751 | 0.35 | 0.236 | 0.629 | 0.689 | 0.508 | 0.224 | 0.238 | 0.959 | 1.04 | 1.13 | 0.67 | 0.157
15 | EKVX | 0.979 | 0.978 | 0.805 | 0.712 | 0.399 | 0.894 | 0.738 | 0.683 | 0.345 | 0.37 | 0.719 | 0.563 | 0.501 | 0.244 | 0.231 | 1 | 1.18 | 0.4 | 0.419 | 0.372
